Experiments:
Assay type in all cases: toxicity, cell-based
[1] = MMV: MTT Cytotoxicity Assay Day 7 pi of Assay #11 (NO washout), U87-CD4-CXCR4 cells, % cell death @ 5mM compound; details: human, u87-cd4-cxcr4, 5000 µM
[2] = MMV: MTT Cytotoxicity Assay Day 7 pi of Assay #10 (NO washout), U87-CD4-CCR5 cells, % cell death @ 5mM compound; details: human, u87-cd4-ccr5, 5000 µM
[3] = MMV: MTT Cytotoxicity Assay Day 3 pi, U87-CD4-CXCR4 cells, % cell death @ 5mM compound; details: human, u87-cd4-cxcr4, 5000 µM
[4] = MMV: MTT Cytotoxicity Assay Day 7 pi of Assay #7 (compound washed out Day 1 pi), U87-CD4-CXCR4 cells, % cell death @ 5mM compound; details: human, u87-cd4-cxcr4, 5000 µM
[5] = MMV: MTT Cytotoxicity Assay Day 3 pi, U87-CD4-CCR5 cells, % cell death @ 5mM compound; details: human, u87-cd4-ccr5, 5000 µM
[6] = MMV: MTT Cytotoxicity Assay Day 7 pi of Assay #6 (compound washed out Day 1 pi), U87-CD4-CCR5 cells, % cell death @ 5mM compound; details: human, u87-cd4-ccr5, 5000 µM

| Structure (SMILES) | % Cell Death [1] | % Cell Death [2] | % Cell Death [3] | % Cell Death [4] | % Cell Death [5] | % Cell Death [6] |
| --- | --- | --- | --- | --- | --- | --- |
| Cc1ccc(-c2cc3c(SCC(=O)Nc4cc(C(F)(F)F)ccc4Cl)nccn3n2)cc1 | 2 | 24 | 35 | -26 | 18 | 12 |
| CN(C)CCCNCc1ccc(-c2ccc(F)c(Cl)c2)o1.Cl | -24 | 8 | 27 | -17 | 20 | 16 |
| COc1ccc(C(=O)NC(c2ccccc2Cl)c2cc(Cl)c3cccnc3c2O)cc1 (centres undefined) | 6 | 11 | 81 | 3 | 50 | 23 |
| O=C(Nc1ccc(C23CC4CC(CC(c5ccccc5)(C4)C2)C3)cc1)c1cccs1 | 109 | 77 | 95 | 98 | 107 | 109 |
| Cc1cc(N2CCN(C3CCCC3)CC2)n2c(nc3ccccc32)c1C#N | -3 | 35 | 44 | -24 | 35 | 48 |
| CCCCCn1c(=N)n(CC(O)COc2cccc(C)c2)c2ccccc21.Cl (centres undefined) | 110 | 115 | 71 | 60 | 99 | 65 |
| OC1=C2C(=Nc3ccccc3SC2c2ccccc2)c2ccccc21 (centres undefined) | -20 | -15 | 20 | 24 | 37 | -22 |
| COc1ccc(CNC(=O)c2cc3c(=O)n4ccccc4nc3n(CCc3ccccc3)c2=N)cc1 | 49 | 0 | 37 | -14 | 14 | -17 |
| COc1ccccc1CNC(=O)C1c2ccccc2C(=O)N(CC(C)C)C1c1cccs1 (centres undefined) | 43 | 60 | 23 | -8 | 108 | 67 |
| CCOC(=O)c1cnc2ccc(CC)cc2c1O | 42 | 21 | 22 | -25 | 1 | 13 |
| Cc1cc(N2CCCC2)nc(Nc2ccc(NC(=O)CCc3ccccc3)cc2)n1 | -21 | 0 | 30 | -12 | 14 | 20 |
| COc1cc2c(cc1OC)C1=NNC(=O)C1=NC(C)(C)C2 | 98 | 106 | 100 | 95 | 107 | 101 |
| CC(C)(C)CC(C)(C)NCC(O)COc1ccc(Cl)cc1Cl (centres undefined) | 8 | -1 | 39 | -31 | -7 | -12 |
| CC1=C(CC(=O)c2cccc([N+](=O)[O-])c2)C(=O)c2ccccc2C1=O | 106 | 94 | 76 | 91 | 92 | 100 |
| Cc1ccc(Cl)cc1N1CCN(CCCNC(=O)C2CCN(c3nc4ccccc4[nH]3)CC2)CC1 | 57 | 91 | 6 | -32 | 86 | 31 |
| Cc1ccc(F)cc1NC(=O)c1cc(Cl)ccc1Nc1ccccc1 | -27 | 28 | 25 | -2 | 7 | 8 |
| Cc1cc(=O)oc2c1ccc1oc(C(=O)c3ccccc3)c(C)c12 | -19 | 35 | 29 | -3 | 10 | 4 |
| Cl.c1ccc2c(NCCCCCCNc3c4c(nc5ccccc35)CCCC4)c3c(nc2c1)CCCC3 | 9 | 34 | 32 | -18 | 12 | -1 |
| O=C(Nc1ccc(-c2nc3cc(NC(=O)c4ccc(Cl)cc4)ccc3[nH]2)cc1)c1ccc(Cl)cc1 | -10 | -18 | 37 | -23 | -28 | -14 |
| CCOc1cc(Br)c(C(C)NC(=O)c2cccc(OC)c2)cc1OCC (centres undefined) | -7 | 28 | -7 | 11 | -32 | 13 |
| Cc1sc(NC(=O)c2ccccc2)c(C(c2cccs2)N2CCN(c3ccccc3)CC2)c1C (centres undefined) | -15 | 95 | 45 | 4 | -1 | -19 |
| O=C(Nc1ccc(-c2nc3ccccc3[nH]2)cc1)c1ccc(Cl)c(Cl)c1 | -46 | 33 | 39 | 20 | 38 | -9 |
| CC(C)(C)c1ccc2c(c1)CN(Cc1ccc(Cl)cc1)CO2 | -36 | 23 | 37 | 18 | 64 | 66 |
| O=C(Nc1ccc(Cl)c(Cl)c1)Nc1ccc(Cl)c(Cl)c1 | 116 | 89 | 59 | 82 | 82 | 54 |
| COc1ccc(C2C(C(=O)Nc3cccc(OC)c3)c3ccccc3C(=O)N2C2CCCCC2)cc1 (centres undefined) | 37 | -8 | 15 | 22 | -65 | 18 |
| COC(=O)c1ccc(Cl)c2c1C1C=CCC1C(c1cccc3ccccc13)N2 (centres undefined) | -34 | -21 | 40 | -20 | -6 | -5 |
| COc1ccc2c(c1)C1(Nc3ccccc3-c3nc4ccccc4n31)C(=O)N2 (centres undefined) | 9 | 29 | 13 | -24 | -75 | -9 |
| CC(Oc1ccc(NC(=O)c2cccs2)cc1)C(=O)c1ccc(Cl)cc1 (centres undefined) | -5 | 2 | 1 | 60 | -10 | 40 |
| c1ccc(/C2=N/c3ccccc3/N=C(/c3ccccc3)c3ccccc32)cc1 | 7 | 16 | 28 | -11 | -3 | 0 |

— ChEMBL document CHEMBL3301472, “MMV Malaria Box HIV and cytotoxicity screening”
